These results are taken from patent US20080260653A1, “Transdermal Delivery Systems and Transdermal Chelation Preparations” (priority 2004, published 2008).

A short description of the data set: Thermal stability and activity test of chelators (copper oxide removal test). The class given is physicochemical. The following applies: 143 degrees F. for 5 minutes. The method, then: A fresh copper surface is prepared. The surface is gently heat oxidized. Next, the chelation quality was determined. About 0.0001 grams per drop (or 0.0029 g/ml) chelator effectively removed all the oxide form 1 cm sq in two minutes at a temperature of 98-99 degrees F. Then, the solution was diluted at 10% intervals to determine the point where it would not remove the oxide. There was a step wise decrease in chelation effect across the Cu test sample plate. A standard of chelation was graphed, see FIGS. 1 and 2.
A similar test is used for thermal stability and activity. […] Also, the identical test is used to determine batch activity. A crude field test is to put the chelator on a penny and heat to 98 degrees.

For `O=S(=O)([O-])CC(S)CS.[Na+]` (centres unmarked) [DMPS, 2,3-dimercaptopropanesulphonate sodium], the “inactive (loss of chelator activity on heating)” value is given as 100%.

For `O=C(O)CN(CCN(CC(=O)O)CC(=O)O)CC(=O)O` [EDTA, ethylenediamine-N,N,N′,N′-tetraacetic acid], the “inactive (loss of chelator activity on heating)” value was found to be 100%.
